Measured values from the NIST ThermoML archive (doi:10.1021/je700260f).

Settings: 303.15 K, Liquid, Vibrating tube method

FC(C(F)(F)F)C(F)(F)F [1,1,1,2,3,3,3-heptafluoropropane]
Settings | mass density [kg/m3]
1945 kPa | 1378.6
1968 kPa | 1378.8
1989 kPa | 1379
2014 kPa | 1379.2
2041 kPa | 1379.4
2063 kPa | 1379.7
2084 kPa | 1379.7
2105 kPa | 1379.8
2131 kPa | 1380.1
2283 kPa | 1381.5
2308 kPa | 1381.6
2332 kPa | 1381.8
2353 kPa | 1381.9
2378 kPa | 1382.2
2402 kPa | 1382.4
2418 kPa | 1382.4
2439 kPa | 1382.6
2461 kPa | 1382.7
2482 kPa | 1383
2510 kPa | 1383.4
2528 kPa | 1383.3
2552 kPa | 1383.4
2569 kPa | 1383.6
2591 kPa | 1383.8
2607 kPa | 1384
2632 kPa | 1384.1
2651 kPa | 1384.2
2673 kPa | 1384.4
2695 kPa | 1384.5
2718 kPa | 1384.7
2737 kPa | 1384.9
2762 kPa | 1385
3000 kPa | 1387
3022 kPa | 1387.1
3068 kPa | 1387.5
3088 kPa | 1387.7
3114 kPa | 1387.8
3136 kPa | 1387.9
3203 kPa | 1388.6
3222 kPa | 1388.8
3271 kPa | 1389
3293 kPa | 1389.2
3319 kPa | 1389.4
3357 kPa | 1389.6
3383 kPa | 1389.8
3402 kPa | 1390.2
3428 kPa | 1390.3
3448 kPa | 1390.3
3471 kPa | 1390.4
3498 kPa | 1390.7
3521 kPa | 1390.8
3541 kPa | 1391.2
3568 kPa | 1391.4
3587 kPa | 1391.3
3614 kPa | 1391.6
3637 kPa | 1391.7
3667 kPa | 1391.9
3690 kPa | 1392.1
3714 kPa | 1392.2
3735 kPa | 1392.5
3765 kPa | 1392.7
3789 kPa | 1393
3820 kPa | 1393
3844 kPa | 1393.3
3875 kPa | 1393.5
3902 kPa | 1393.7
3919 kPa | 1393.8
3940 kPa | 1394
3964 kPa | 1394.2
3991 kPa | 1394.5
4022 kPa | 1394.6
4050 kPa | 1394.7
4072 kPa | 1395
4099 kPa | 1395.1
4123 kPa | 1395.3
4147 kPa | 1395.5
4168 kPa | 1395.6
4189 kPa | 1395.8
4217 kPa | 1396
4249 kPa | 1396.3
4273 kPa | 1396.5
4290 kPa | 1396.4
4416 kPa | 1397.5
4444 kPa | 1397.6
4466 kPa | 1397.8
4497 kPa | 1397.9
4524 kPa | 1398
4552 kPa | 1398.4
4582 kPa | 1398.6
4611 kPa | 1398.9
4633 kPa | 1399.1
4659 kPa | 1399.4
4684 kPa | 1399.2
4710 kPa | 1399.5
4735 kPa | 1399.6
4765 kPa | 1399.9
4788 kPa | 1400
4811 kPa | 1400.2
4875 kPa | 1400.6
4904 kPa | 1400.9
4933 kPa | 1401.1
4958 kPa | 1401.2
4984 kPa | 1401.4
5013 kPa | 1401.5
5035 kPa | 1401.8
5060 kPa | 1401.7
5082 kPa | 1402.2
5116 kPa | 1402.4
5146 kPa | 1402.4
5172 kPa | 1402.6
5194 kPa | 1402.8
5221 kPa | 1403
5239 kPa | 1403
5261 kPa | 1403.2
5286 kPa | 1403.5
5308 kPa | 1403.6
5335 kPa | 1403.7
5356 kPa | 1403.9
5379 kPa | 1404
5405 kPa | 1404.1
5427 kPa | 1404.4
5457 kPa | 1404.7
5479 kPa | 1404.8
5509 kPa | 1405
5546 kPa | 1405.2
5568 kPa | 1405.3
5609 kPa | 1405.6
5635 kPa | 1405.8
5654 kPa | 1405.9
5688 kPa | 1406.2
5715 kPa | 1406.3
5738 kPa | 1406.4
5768 kPa | 1406.6
5795 kPa | 1406.8
5829 kPa | 1407.1
5856 kPa | 1407.3
5879 kPa | 1407.3
5906 kPa | 1407.7
5934 kPa | 1407.9
5957 kPa | 1408
5980 kPa | 1408.2
6003 kPa | 1408.2
6033 kPa | 1408.4
6056 kPa | 1408.6
6080 kPa | 1408.8
6108 kPa | 1408.9
6135 kPa | 1409
6167 kPa | 1409.2
6186 kPa | 1409.4
6217 kPa | 1409.6
6240 kPa | 1409.7
6272 kPa | 1409.9
6300 kPa | 1410.1
6332 kPa | 1410.3
6356 kPa | 1410.5
6382 kPa | 1410.7
6413 kPa | 1410.8
6441 kPa | 1411.1
6469 kPa | 1411.1
6493 kPa | 1411.3
6529 kPa | 1411.6
6556 kPa | 1411.7
6581 kPa | 1411.9
6617 kPa | 1412.2
6647 kPa | 1412.4
6675 kPa | 1412.6
6699 kPa | 1412.7
6720 kPa | 1412.9
6744 kPa | 1413.1
6772 kPa | 1413.3
6796 kPa | 1413.4
6820 kPa | 1413.5
6845 kPa | 1413.6
6881 kPa | 1414
6909 kPa | 1414.1
6937 kPa | 1414.3
6974 kPa | 1414.4
7006 kPa | 1414.7
7030 kPa | 1414.8
7056 kPa | 1415
7077 kPa | 1415.1
7110 kPa | 1415.2
7138 kPa | 1415.5
7171 kPa | 1415.7
7192 kPa | 1415.8
7216 kPa | 1416
7441 kPa | 1417.3
7474 kPa | 1417.5
7507 kPa | 1417.7
7536 kPa | 1417.9
7570 kPa | 1418.2
7599 kPa | 1418.3
7628 kPa | 1418.5
7669 kPa | 1418.7
7702 kPa | 1418.8
7727 kPa | 1419
7762 kPa | 1419.2
7795 kPa | 1419.4
7821 kPa | 1419.5
7850 kPa | 1419.8
7879 kPa | 1420
7912 kPa | 1420.3
7941 kPa | 1420.4
7970 kPa | 1420.6
8008 kPa | 1420.7
8033 kPa | 1421
